According to patent US20180042982A1, “Methods for Treating HCV” (priority 2013, published 2018):

Legend:
[1] = tested on: resistance-associated variants in GT 1b (Con-1) replicon; test: Activity against resistance-associated variants, GT 1b; type: cell-based, Hepatitis C virus
Excerpt: (§1) However, these variants had in vitro replication capacities of only 1.5% and 9.2% that of their corresponding wild-type replicons.

[2] = tested on: replicon containing GT3a NS3 protease; test: Resistant colony selection in replicon containing GT3a NS3 protease; type: cell-based, Hepatitis C virus; conditions: concentrations ≧100-fold over its EC50 value
Excerpt: as §1

[3] = tested on: resistance-associated variants in GT 1a (H77) replicon; test: Activity against resistance-associated variants, GT 1a; type: cell-based, Hepatitis C virus
Excerpt: as §1

HCV = test: Anti-HCV efficacy of Compound 1 at different doses; set-up: species or system Hepatitis C virus; conditions: 200-300 mg Compound 1 compared with 400 mg Compound 1
HCV replicon Genotype 3a = test: HCV subgenomic stable replicon cell culture assay, genotype 3a; type: cell-based; conditions: Hepatitis C virus, read-out: Mean EC50, nM, ± Std. Dev.
Excerpt: as §1

With `CC(C)(C)[C@@H]1NC(=O)O[C@@H]2CCC[C@H]2OC/C=C/C(F)(F)c2nc3ccccc3nc2O[C@@H]2C[C@@H](C(=O)N[C@]3(C(=O)NS(=O)(=O)C4(C)CC4)C[C@H]3C(F)F)N(C2)C1=O` [Compound 1] the “activity against common variants at NS3 amino acid positions 155 and 168” value ([1]; GT1b variants conferring resistance to other HCV protease inhibitors) was “retained its activity”, the “activity against NS5A inhibitor and NS5B inhibitor resistance-associated variants” value ([1]; L28T, Y93H, S282T, C316Y, Y448H and S556G in GT 1b) was “potent activity” and the “inhibitory activity against NS3 resistance-associated variants” value ([1]; T54A, R155K, D168V and V170A in GT 1b (Con-1)) was “nearly equivalent to that against wild-type HCV replicon”. For the same compound, the resistant colony selection [2] was “selected very few colonies”, the “activity against common variants at NS3 amino acid positions 155 and 168” value ([3]; GT1a variants conferring resistance to other HCV protease inhibitors) was “retained its activity” and the “activity against NS5A inhibitor and NS5B inhibitor resistance-associated variants” value ([3]; M28T, M28V, Q30D, Q30R, Y93C, Y93H, Y93N, L31V+Y93H, C316Y, M414T, Y448C, Y448H, S556G and S559G in GT 1a) was “potent activity”. The “inhibitory activity against NS3 resistance-associated variants” value ([3]; V36M, R155K, D168A and D168V in GT 1a (H77)) was “nearly equivalent to that against wild-type HCV replicon”, the “anti-HCV efficacy of 200-300 mg versus 400 mg” value (HCV) was “comparable anti-HCV efficacy” and the EC50 (HCV replicon Genotype 3a) was 1.6 ± 0.49 nM.
